Among the data in US7871960B2, “1-(Imidazolin-2-yl)amino-1,2-diphenylethane compounds for combating animal pests” (BASF SE, priority 2005, dated 2011) are melting point and mortality values, retold here.

Counter-ions that a name gives are not always drawn. Where only a bound is given, the exact number is not on record here.

The test system of data set [1] is Megoura viciae. The data set is described as follows: Vetch aphid (Megoura viciae) mortality on sprayed bean leaf disks in microtiterplates. Type of data set: in vivo. Conditions: foliar, 144 h, bean leaf disks sprayed with 2.5 μl, 6 days, read-out: mortality in comparison with untreated controls. The protocol:
The active compounds were formulated in 1:3 DMSO:water. Bean leaf disks were placed into microtiterplates filled with 0.8% agar-agar and 2.5 ppm OPUS™. The leaf disks were sprayed with 2.5 μl of the test solution and 5 to 8 adult aphids were placed into the microtiterplates which were then closed and kept at 22-24° C. and 35-45% under fluorescent light for 6 days. Mortality was assessed on the basis of vital, reproduced aphids. Tests were replicated 2 times.

Turning to `Clc1cccc(CC(N=C2NCCN2)c2ccccc2)c1` (centres unmarked) (as salt: salt) [Example 1.1, [2-(3-Chloro-phenyl)-1-phenyl-ethyl]-(4,5-dihydro-1H-imidazol-2-yl)-amine hydroiodide], the melting point (as a rule, the temperature, or range, at which the solid turns liquid) was in the range of 162 to 164 °C. `CC(=O)N1CCN=C1NC(Cc1ccccc1)c1ccccc1` (centres unmarked) [Example 2.1, 1-[2-(1,2-Diphenylethylamino)-4,5-dihydroimidazol-1-yl]-ethanone]: in data set [1], the mortality (in general, the percentage killed) at 2500 ppm is > 80%.
